Assay [1] has as its target T1, human histamine H3 receptor (Homo sapiens, UniProt Q9Y5N1).
T1 construct: expressed in transfected cells; host or cells: CHO K1 cells carrying the pSwitch regulatory plasmid, transfected with pGeneH3 and induced with mifepristone; clone 3H3; membranes prepared from these cells
Briefly: Histamine H3 functional antagonist assay (method B). It is filed as biochemical. To be noted: [35S]GTPγS LeadSeeker SPA, CHO membranes, histamine at EC80, 384 well; read-out: antagonism pKb, histamine H3 functional antagonist assay (method B) (converted). The source says:
(§1) A membrane preparation containing histamine H3 receptors may be prepared in accordance with the following procedures:
DNA encoding the human histamine H3 gene (Huvar, A. et al. (1999) Mol. Pharmacol. 55(6), 1101-1107) was cloned into a holding vector, pCDNA3.1 TOPO (InVitrogen) and its cDNA was isolated from this vector by restriction digestion of plasmid DNA with the enzymes BamH1 and Not-1 and ligated into the inducible expression vector pGene (InVitrogen) digested with the same enzymes. The GeneSwitch™ system (a system where in transgene expression is switched off in the absence of an inducer and switched on in the presence of an inducer) was performed as described in U.S. Pat. Nos. 5,364,791; 5,874,534; and 5,935,934. Ligated DNA was transformed into competent DH5α E. coli host bacterial cells and plated onto Luria Broth (LB) agar containing Zeocin™ (an antibiotic which allows the selection of cells expressing the sh ble gene which is present on pGene and pSwitch) at 50 μg ml^−1. Colonies containing the re-ligated plasmid were identified by restriction analysis. DNA for transfection into mammalian cells was prepared from 250 ml cultures of the host bacterium containing the pGeneH3 plasmid and isolated using a DNA preparation kit (Qiagen Midi-Prep) as per manufacturers guidelines (Qiagen). […]
(§2) 10-14 days post selection 10 nM Mifepristone (InVitrogen), was added to the culture medium to induce the expression of the receptor. […] Receptor bound antibody was detected by incubation of the cells for 60 minutes on ice with a goat anti rabbit antibody, conjugated with Alexa 488 fluorescence marker (Molecular Probes). Following two further washes with Sorting Medium, cells were filtered through a 50 μm Filcon™ (BD Biosciences) and then analysed on a FACS Vantage SE Flow Cytometer fitted with an Automatic Cell Deposition Unit. […]

The target of assay [2] is T1, human histamine H3 receptor. Description: Histamine H3 functional antagonist assay (method A). Type of assay: biochemical. The note with it: [35S]GTPγS SPA, CHO membranes, histamine 0.3 μM, 96 well.
Text: as §1
(§3) DNA encoding the human histamine H3 gene (Huvar, A. et al. (1999) Mol. Pharmacol. 55(6), 1101-1107) was cloned into a holding vector, pCDNA3.1 TOPO (InVitrogen) and its cDNA was isolated from this vector by restriction digestion of plasmid DNA with the enzymes BamH1 and Not-1 and ligated into the inducible expression vector pGene (InVitrogen) digested with the same enzymes. The GeneSwitch™ system (a system where in transgene expression is switched off in the absence of an inducer and switched on in the presence of an inducer) was performed as described in U.S. Pat. Nos. 5,364,791; 5,874,534; and 5,935,934. […]
as §2

A further assay concerns the target T2, human H1 receptor (Homo sapiens, UniProt P35367).
T2 construct: expressed in transfected cells; host or cells: Chinese hamster ovary cells stably expressing the human H1 receptor
Briefly: Histamine H1 functional antagonist assay (method A). It is filed as cell-based. The note with it: FLIPR, FLUO4AM, suppression of histamine induced increase in fluorescence; read-out: antagonism pKb, histamine H1 functional antagonist assay (method A) (converted). On the procedure:
A histamine H1 cell line may be generated in accordance with the following procedure:
The human H1 receptor was cloned using known procedures described in the literature [Biochem. Biophys. Res. Commun. 1994, 201(2), 894]. Chinese hamster ovary cells stably expressing the human H1 receptor were generated according to known procedures described in the literature [Br. J. Pharmacol. 1996, 117(6), 1071].
(IV) Histamine H1 Functional Antagonist Assay (Method A)
The compound is assayed in a black walled clear bottom 384-well plate with cells seeded at 10000 cells/well. Tyrodes buffer is used throughout (NaCl 145 mM, KCl 2.5 mM, HEPES 10 mM, glucose 10 mM, MgCl2 1.2 mM, CaCl2 1.5 mM, probenecid 2.5 mM, pH adjusted to 7.40 with NaOH 1.0 M). Each well is treated with 10 μl of a solution of FLUO4AM (10 μM in Tyrodes buffer at pH 7.40) and plates are then incubated for 60 minutes at 37° C. Wells are then washed with Tyrodes buffer using a EMBLA cell washer system, leaving 40 μl buffer in each well, and then treated with 10 μl of test compound in Tyrodes buffer. […]
Functional antagonism is indicated by a suppression of histamine induced increase in fluorescence, as measured by the FLIPR system (Molecular Devices). By means of concentration effect curves, functional potencies are determined using standard pharmacological mathematical analysis.

Assay [3] has as its target T1, human histamine H3 receptor. Briefly: Histamine H3 functional antagonist assay (method C). Type of assay: biochemical. To be noted: [35S]GTPγS LeadSeeker SPA, CHO membranes, histamine at EC80, 384 well, compound in DMSO; read-out: antagonism pKb, histamine H3 functional antagonist assay (method C) (converted).
Text: as §1, §3, §2

Consider six compounds from US20080009479A1, “Tetrahydrobenzazepines as Histamine H3 Receptor Ligands” (GLAXO GROUP LIMITED, priority 2004, published 2008).

SMILES strings stand for the structures.

T1 sequence (Q9Y5N1 whole entry): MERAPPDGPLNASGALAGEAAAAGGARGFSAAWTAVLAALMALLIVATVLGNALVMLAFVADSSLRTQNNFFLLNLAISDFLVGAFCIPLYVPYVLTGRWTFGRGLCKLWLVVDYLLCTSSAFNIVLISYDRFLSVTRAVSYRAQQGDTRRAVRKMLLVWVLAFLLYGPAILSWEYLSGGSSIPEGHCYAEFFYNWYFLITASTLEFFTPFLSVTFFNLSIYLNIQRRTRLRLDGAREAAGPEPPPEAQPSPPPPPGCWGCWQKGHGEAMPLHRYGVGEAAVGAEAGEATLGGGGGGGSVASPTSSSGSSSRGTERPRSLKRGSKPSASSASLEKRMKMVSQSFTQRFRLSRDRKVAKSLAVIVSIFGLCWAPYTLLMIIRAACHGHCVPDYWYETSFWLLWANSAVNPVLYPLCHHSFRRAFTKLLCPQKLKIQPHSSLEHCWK
T2 sequence (P35367 whole entry): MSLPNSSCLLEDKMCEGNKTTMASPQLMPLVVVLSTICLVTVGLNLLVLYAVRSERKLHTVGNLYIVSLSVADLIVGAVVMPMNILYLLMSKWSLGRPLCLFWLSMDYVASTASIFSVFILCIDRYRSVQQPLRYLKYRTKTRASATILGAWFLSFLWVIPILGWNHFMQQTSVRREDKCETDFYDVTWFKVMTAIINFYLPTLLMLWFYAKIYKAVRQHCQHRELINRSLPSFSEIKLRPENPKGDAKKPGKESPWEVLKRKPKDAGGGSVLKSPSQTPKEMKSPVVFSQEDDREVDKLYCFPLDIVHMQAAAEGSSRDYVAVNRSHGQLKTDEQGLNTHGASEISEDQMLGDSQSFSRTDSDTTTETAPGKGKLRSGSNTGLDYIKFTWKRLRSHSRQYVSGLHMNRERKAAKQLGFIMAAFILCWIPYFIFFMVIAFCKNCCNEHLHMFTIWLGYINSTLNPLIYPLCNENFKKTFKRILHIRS

As to `CCN1CCc2ccc(Oc3ccc(N4CCCC4=O)cn3)cc2CC1` [Example E14, 1-{6-[(3-Ethyl-2,3,4,5-tetrahydro-1H-3-benzazepin-7-yl)oxy]-3-pyridinyl}-2-pyrrolidinone], the Kb in assay [1] is below 1 nM.

With `c1cc2c(cc1OCCCC1CCCCC1)CCN(CC1CC1)CC2` [Example E20, 7-[(3-Cyclohexylpropyl)oxy]-3-(cyclopropylmethyl)-2,3,4,5-tetrahydro-1H-3-benzazepine], the Kb in assay [2] (read-out: antagonism pKb, histamine H3 functional antagonist assay (method A) (converted)) was below 100 nM.

Regarding `O=C1CCCN1c1ccc(Oc2ccc3c(c2)CCN(CC2CC2)CC3)nc1` [Example E13, 1-(6-{[3-(Cyclopropylmethyl)-2,3,4,5-tetrahydro-1H-3-benzazepin-7-yl]oxy}-3-pyridinyl)-2-pyrrolidinone], in assay [1], the Kb was below 1 nM.

Take `c1ccc(COc2ccc3c(c2)CCN(CC2CC2)CC3)cc1` [Example E19, 3-(Cyclopropylmethyl)-7-[(phenylmethyl)oxy]-2,3,4,5-tetrahydro-1H-3-benzazepine]: the Kb in assay [2] (antagonism pKb, histamine H3 functional antagonist assay (method A)) was below 10 nM; at human H1 receptor, above 316 nM.

As to `CCC(C)N1CCc2ccc(Oc3ccc(N4CCCC4=O)cn3)cc2CC1` (centres unmarked) [Example E15, 1-(6-{[3-(1-Methylpropyl)-2,3,4,5-tetrahydro-1H-3-benzazepin-7-yl]oxy}-3-pyridinyl)-2-pyrrolidinone], the Kb in assay [3] is below 1 nM.

As for `O=C1CCCN1c1cnc(Oc2ccc3c(c2)CCN(CC2CC2)CC3)cn1` [Example E1, 1-(5-{[3-(Cyclopropylmethyl)-2,3,4,5-tetrahydro-1H-3-benzazepin-7-yl]oxy}-2-pyrazinyl)-2-pyrrolidinone], the Kb in assay [3] and in assay [1] was below 1 nM in each case.
